This passage reports IC50 results from patent publication US8044077B2, “Alpha-(N-sulfonamido)acetamide compounds incorporating deuterium as inhibitors of beta amyloid peptide production” (Bristol-Myers Squibb Company, priority 2009, dated 2011).

What is called IC50 is the concentration needed to halve the response being measured. A lower IC50 goes with greater potency.

In this assay the test system is H4 APP751 SWE clone 8.20 (H4-8Sw cells), Aβ42 formation. Briefly: Inhibition of Aβ42 formation in cultured cells. The settings on record: H4-8Sw cells (H4 neuroglioma stably expressing Swedish mutant APP751), 19 hours incubation, mean±SD, n=2. The assay is classed as cell-based. The procedure: Compounds were assayed for Aβ42 inhibition in cells using H4 APP751 SWE clone 8.20, developed at Bristol-Myers Squibb, an H4 neuroglioma cell line stably expressing the Swedish mutant of APP751. Cells were maintained in log phase through twice weekly passage at a 1:20 dilution. For IC50 determinations, 30 μL cells (1.5×10^4 cells/well) in DMEM media containing 0.0125% BSA (Sigma A8412) were plated directly into 384-well compound plates (Costar 3709) containing 0.1 μL serially diluted compound in DMSO. Following incubation for 19 hours in 5% CO2 at 37° C., plates were briefly centrifuged (1000 rpm, 5 min). Antibody cocktails were freshly prepared by dilution into 40 mM Tris-HCl (pH 7.4) with 0.2% BSA and added to assay plates. For Aβ42 measurements, antibodies specific for the Aβ42 neoepitope (565, developed at Bristol-Myers Squibb; conjugated to the Wallac reagent (Perkin Elmer)) and the N-terminal sequence of Aβ peptide (26D6, developed at SIBIA/Bristol-Myers Squibb; conjugated to APC (Perkin Elmer)) were mixed and 20 μL of the mixture was added to each well of the incubated cell plate yielding a final concentration of 0.8 ng/well 565 and 75 ng/well 26D6. […] Signal was determined using a Viewlux counter (Perkin Elmer) and IC50 values determined using curve fitting in CurveMaster (Excel Fit based).

In turn, `[2H]c1nc(-c2ccc(CN([C@H](CCC(F)(F)F)C(N)=O)S(=O)(=O)c3ccc(Cl)cc3)c(F)c2)no1` [Example 1, (2R)-2-[[(4-Chlorophenyl)sulfonyl][[2-fluoro-4-(1,2,4-oxadiazol-5-deutero-3-yl)phenyl]methyl]amino]-5,5,5-trifluoropentanamide] had an IC50 of 0.12 ± 0.01 nM.
